Test results: ChEMBL document CHEMBL1136502, “Novel mechanism of inhibiting beta-lactamases by sulfonylation using beta-sultams” (Bioorg Med Chem Lett, 2003)

How the values were obtained:
Beta-lactamase = Beta-lactamase (Enterobacter cloacae, UniProt P05364); test: Inhibitor activity against Beta-lactamase, derived from the Gram negative bacteria Enterobacter cloacae at pH 7
[1] = pKa value was determined; format: physicochemical

Beta-lactamase, sequence (P05364 whole entry): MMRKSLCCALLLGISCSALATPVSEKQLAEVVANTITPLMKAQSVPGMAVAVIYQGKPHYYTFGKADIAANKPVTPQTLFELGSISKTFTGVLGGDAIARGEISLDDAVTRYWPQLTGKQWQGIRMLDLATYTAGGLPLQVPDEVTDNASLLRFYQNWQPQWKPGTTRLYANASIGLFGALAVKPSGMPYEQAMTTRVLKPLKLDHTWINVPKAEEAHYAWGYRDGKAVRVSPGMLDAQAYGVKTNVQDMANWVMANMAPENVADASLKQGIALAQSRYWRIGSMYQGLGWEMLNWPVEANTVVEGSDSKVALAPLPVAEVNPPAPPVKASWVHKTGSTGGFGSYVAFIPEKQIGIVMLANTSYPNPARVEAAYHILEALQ

| kinact/Ki (Beta-lactamase) | pKa [1] | Structure (SMILES) |
| --- | --- | --- |
| 0.07 M⁻¹ s⁻¹ |  | CC(C)C1CN(C(=O)c2ccccc2)S1(=O)=O (stereo not drawn) |
| 163 M⁻¹ s⁻¹ | 6.3 | O=C(c1ccccc1)N1CCS1(=O)=O |
